Laboratory results from patent US9783586B2, “Inhibitors of the linear ubiquitin chain assembly complex (LUBAC) and related methods” (The United States of America, as represented by the …, priority 2013, dated 2017).
Entries after “also recorded” stand apart in the source; their conditions may differ. Positions of bridges follow the written chain, without caps; N, C: chain ends. Non-standard residues stand in square brackets, D forms with d. Residues, ends and D or L forms follow the SMILES beside them. No end group written: not given here. S5 = C=CCCC[C@](C)(N)C(=O)O; βAla = NCCC(=O)O

Experiments:
Format in all cases: cell-based
RBCK1/RNF31 interaction = target: T1, RBCK1/RNF31 interaction (Homo sapiens, UniProt Q9BYM8); assay: RBCK1/RNF31 co-immunoprecipitation (LUBAC complex formation) in co-transfected HEK-293 cells; details: for Interference with LUBAC function: Example 9, tested as described in Example 7 (present tense)
T1 construct: expressed in transfected cells; host or cells: HEK-293
T1 sequence (Q9BYM8 1-510): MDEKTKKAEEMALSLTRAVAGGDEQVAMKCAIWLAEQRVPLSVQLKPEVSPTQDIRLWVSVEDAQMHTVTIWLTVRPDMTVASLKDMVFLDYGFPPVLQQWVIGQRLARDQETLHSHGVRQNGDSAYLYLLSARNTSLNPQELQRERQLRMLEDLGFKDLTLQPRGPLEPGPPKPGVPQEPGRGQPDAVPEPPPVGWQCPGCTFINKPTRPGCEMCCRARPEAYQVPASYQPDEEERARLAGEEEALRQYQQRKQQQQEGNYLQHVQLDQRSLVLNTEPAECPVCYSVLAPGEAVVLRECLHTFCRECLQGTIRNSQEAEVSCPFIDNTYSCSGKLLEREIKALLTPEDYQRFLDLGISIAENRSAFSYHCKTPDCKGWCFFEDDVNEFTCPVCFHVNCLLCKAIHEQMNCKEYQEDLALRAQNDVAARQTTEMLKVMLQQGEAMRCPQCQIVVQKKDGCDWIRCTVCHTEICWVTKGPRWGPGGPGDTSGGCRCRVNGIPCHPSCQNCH

ABC DLBCL cell lines = assay: MTS cell viability assay, ABC DLBCL; details: ABC DLBCL cells, Example 10 (FIG. 8C)
Method: ABC and GCB DLBCL cell lines were treated with RNF31 stapled peptides of Table 2 at concentrations of 5 μM or 20 μM for four days. Cell viability was determined using the following MTS assay. Cells were plated in triplicate at a density of 15,000 cells per well in 96-well plates. Cell viability after indicated treatments was assayed by adding 3-(4,5-dimethylthiazol-2-yl)-5-(3-carboxymethoxyphenyl)-2-(4-sulphophenyl)-2H tetrazolium and an electron coupling reagent (phenazine methosulphate from Promega, Madison, Wis.), incubated for 3 hours and measured by the amount of 490 nm absorbance using a 96-well plate reader. The background was subtracted using a media only control. The results of these MTS assays done in triplicate are shown in FIGS. 7A-7D (error bars indicate the SEM), and cell viability is expressed as the fraction of cells remaining after four days treatment, relative to the initial number of cells at the start of treatment (time 0). The results of MTS cell viability assay indicate that amino-terminal cross-linked peptides RNF31-N (SEQ ID NO: 11) and RNF31-NC (SEQ ID NO: 12) were toxic to ABC DLBCL cell lines but had little effect on GCB DLBCL cell lines tested.

NF-κB = NF-κB luciferase reporter assay; details: for NF-κB activity: ABC DLBCL cells, Example 10 (FIG. 8A)
Method: A third experiment was done using a different reporter system for NF-κB activity. HBL1 and TMD8 ABC DLBCL lines cell lines were created with an NF-κB transcriptional reporter by transduction with lentiviral particles containing an inducible NF-κB-responsive luciferase reporter construct (SA Biosciences, Valencia, Calif.) and selected with puromycin. Luciferase activity was measured using the DUAL-LUCIFERASE™ Reporter Assay System (Promega) on a Microtiter Plate Luminometer (Dyn-Ex Technologies, Chantilly, Va.). The transduced HBL and TMD8 cell lines were then transfected with constructs that inducibly express control (SC4) or RNF31 shRNAs described above. Expression of shRNAs was induced using doxycyline, and the luciferase reporter activity in shRNF31 expression cells was measured and normalized relative to control (SC4). Cells were also treated with the specific IKKβ inhibitor (MLN120B) as a positive control. Experiments were done in triplicate, and results are shown in FIG. 2C (error bars indicate SEM).
The ability of these peptides to inhibit NF-κB activity in ABC DLBCL was determined using the NF-κB luciferase reporter assay described above. Negative control cells were treated with dimethyl sulfoxide (DMSO), and positive control cells were treated with Bruton's tyrosine kinase (Btk) inhibitor ibrutinib. […] Cells were treated with peptides at concentrations of 5 μM or 20 μM for 2 days. Relative NF-κB-luciferase reporter activity was normalized and measured relative to control (DMSO-treated) cells. The results of triplicate experiments are shown in FIG. 4 (error bars indicate the SEM).

IκBα = assay: IκBα-luciferase reporter assay; details: ABC DLBCL cells, Example 10 (FIG. 8B)
Excerpt: In a second experiment, HBL1 and TMD8 ABC DLBCL lines were engineered to contain an NF-κB-driven luciferase reporter. Vectors expressing an IκBα-luciferase fusion protein were constructed using Photinus luciferase from pGL3 vector (Promega, Madison, Wis.) as the reporter and Renilla luciferase construct from phRL-TK (Promega) was used for normalization. Stable clones were identified that were responsive to […] (see Lam et al, Clin Cancer Res, 11: 28-40 (2005)). After development with the DUAL-GLO luciferase assay system (Promega), the ratio of IκBα-Photinus to Renilla luminescence was normalized to that in untreated or uninduced cultures. The IκBα assay, which relies on the correlation between NF-κB activity and IKKβ kinase activity, was previously described in Lenz et al, Science, 319: 1676-1679 (2008). In brief, IKKβ kinase phosphorylates IκBα, which leads to degradation of IκBα (an inhibitor of NF-κB) and thereby activates NF-κB.
The engineered cells were transfected with control (SC4) or RNF31 shRNAs under the control of a doxycyline promoter as described in Example 2. Expression of shRNA was induced with doxycyline, and relative amounts of NF-κB Luciferase reporter activity was measured and normalized relative to control (SC4) shRNA. As additional controls, the expression of NF-κB Luciferase reporter activity was measured in cells that were not expressing shRNAs and which were either treated with the specific IKKβ inhibitor (“MLM-120B”) or untreated (“No Rx”). Experiments were done in triplicate and the results are shown in FIG. 2B (error bars indicate standard error of the mean (SEM)).

CC(=O)NCCC(=O)N[C@@H](CO)C(=O)N[C@@H](CCCNC(=N)N)C(=O)N[C@@]1(C)CCCC=CCCC[C@@](C)(C(=O)N[C@@H](CCC(N)=O)C(=O)N[C@@H](CCCNC(=N)N)C(=O)N[C@@H](CCC(N)=O)C(=O)N[C@@H](CCCNC(=N)N)C(=O)N[C@@H](CC(C)C)C(=O)N[C@@H](CCC(=O)O)C(=O)N2CCC[C@H]2C(=O)N[C@@H](Cc2ccccc2)C(=O)N[C@@H](CCCNC(=N)N)C(=O)N[C@@H](CC(C)C)C(=O)N[C@@H](CCCNC(=N)N)C(=O)N[C@@]2(C)CCCC=CCCC[C@@](C)(C(N)=O)NC(=O)[C@H](CO)NC(=O)[C@H](CC(=O)O)NC(=O)[C@H](Cc3c[nH]c4ccccc34)NC2=O)NC(=O)[C@H](CCC(=O)O)NC(=O)[C@H]([C@@H](C)O)NC(=O)[C@H](CC(C)C)NC1=O [RNF31-NC Q2L, Ac-βAla Ser Arg Xaa Leu Thr Glu Xaa Gln Arg Gln Arg Leu Glu Pro Phe Arg Leu Arg Xaa Trp Asp Ser Xaa-NH2] (Ac-[βAla]SR[S5]LTE[S5]QRQRLEPFRLR[S5]WDS[S5]-NH2; staple 4-8, 20-24)
Interference with LUBAC function (RBCK1/RNF31 interaction): interfere with LUBAC function | Cell viability (MTS) (ABC DLBCL cell lines): decreased cell viability; also recorded: greatest activity | NF-κB activity (NF-κB): inhibited NF-κB activity; also recorded: greatest activity | IκBα activity (IκBα-reporter) (IκBα): decreased IκBα activity; also recorded: greatest activity

CC(=O)NCCC(=O)N[C@@H](CO)C(=O)N[C@@H](CCCNC(=N)N)C(=O)N[C@@]1(C)CCCC=CCCC[C@@](C)(C(=O)N[C@@H](CCC(N)=O)C(=O)N[C@@H](CCCNC(=N)N)C(=O)N[C@@H](CCC(N)=O)C(=O)N[C@@H](CCCNC(=N)N)C(=O)N[C@@H](CC(C)C)C(=O)N[C@@H](CCC(=O)O)C(=O)N2CCC[C@H]2C(=O)N[C@@H](Cc2ccccc2)C(=O)N[C@@H](CS)C(=O)N[C@@H](CC(C)C)C(=O)N[C@@H](CCCNC(=N)N)C(=O)N[C@@]2(C)CCCC=CCCC[C@@](C)(C(N)=O)NC(=O)[C@H](CO)NC(=O)[C@H](CC(=O)O)NC(=O)[C@H](Cc3c[nH]c4ccccc34)NC2=O)NC(=O)[C@H](CCC(=O)O)NC(=O)[C@H]([C@@H](C)O)NC(=O)[C@H](CC(C)C)NC1=O [RNF31-NC R2CL, Ac-βAla Ser Arg Xaa Leu Thr Glu Xaa Gln Arg Gln Arg Leu Glu Pro Phe Cys Leu Arg Xaa Trp Asp Ser Xaa-NH2] (Ac-[βAla]SR[S5]LTE[S5]QRQRLEPFCLR[S5]WDS[S5]-NH2; staple 4-8, 20-24)
Interference with LUBAC function (RBCK1/RNF31 interaction): interfere with LUBAC function

CC(=O)NCCC(=O)N[C@@H](CO)C(=O)N[C@@H](CCCNC(=N)N)C(=O)N[C@@]1(C)CCCC=CCCC[C@@](C)(C(=O)N[C@@H](CCC(N)=O)C(=O)N[C@@H](CCCNC(=N)N)C(=O)N[C@@H](CCC(N)=O)C(=O)N[C@@H](CCCNC(=N)N)C(=O)N[C@@H](CC(C)C)C(=O)N[C@@H](CCC(=O)O)C(=O)NCC(=O)N[C@@H](Cc2ccccc2)C(=O)N[C@@H](CCCNC(=N)N)C(=O)N[C@@H](CCC(N)=O)C(=O)N[C@@H](CCCNC(=N)N)C(=O)N[C@@]2(C)CCCC=CCCC[C@@](C)(C(N)=O)NC(=O)[C@H](CO)NC(=O)[C@H](CC(=O)O)NC(=O)[C@H](Cc3c[nH]c4ccccc34)NC2=O)NC(=O)[C@H](CCC(=O)O)NC(=O)[C@H]([C@@H](C)O)NC(=O)[C@H](CC(C)C)NC1=O [RNF31-NC P2G, Ac-βAla Ser Arg Xaa Leu Thr Glu Xaa Gln Arg Gln Arg Leu Glu Gly Phe Arg Gln Arg Xaa Trp Asp Ser Xaa-NH2] (Ac-[βAla]SR[S5]LTE[S5]QRQRLEGFRQR[S5]WDS[S5]-NH2; staple 4-8, 20-24)
Interference with LUBAC function (RBCK1/RNF31 interaction): interfere with LUBAC function

SRALTELQRQRLEPFRQRLWDSG [SEQ ID NO:1]
Cell viability (MTS) (ABC DLBCL cell lines): little or no effect | NF-κB activity (NF-κB): little or no effect | IκBα activity (IκBα-reporter) (IκBα): little or no effect

CC(=O)NCCC(=O)N[C@@H](CO)C(=O)N[C@@H](CCCNC(=N)N)C(=O)N[C@@]1(C)CCCC=CCCC[C@@](C)(C(=O)N[C@@H](CCC(N)=O)C(=O)N[C@@H](CCCNC(=N)N)C(=O)N[C@@H](CCC(N)=O)C(=O)N[C@@H](CCCNC(=N)N)C(=O)N[C@@H](CC(C)C)C(=O)N[C@@H](CCC(=O)O)C(=O)N2CCC[C@H]2C(=O)N[C@@H](Cc2ccccc2)C(=O)N[C@@H](CS)C(=O)N[C@@H](CCC(N)=O)C(=O)N[C@@H](CCCNC(=N)N)C(=O)N[C@@]2(C)CCCC=CCCC[C@@](C)(C(N)=O)NC(=O)[C@H](CO)NC(=O)[C@H](CC(=O)O)NC(=O)[C@H](Cc3c[nH]c4ccccc34)NC2=O)NC(=O)[C@H](CCC(=O)O)NC(=O)[C@H]([C@@H](C)O)NC(=O)[C@H](CC(C)C)NC1=O [RNF31-NC R2C, Ac-βAla Ser Arg Xaa Leu Thr Glu Xaa Gln Arg Gln Arg Leu Glu Pro Phe Cys Gln Arg Xaa Trp Asp Ser Xaa-NH2] (Ac-[βAla]SR[S5]LTE[S5]QRQRLEPFCQR[S5]WDS[S5]-NH2; staple 4-8, 20-24)
Interference with LUBAC function (RBCK1/RNF31 interaction): interfere with LUBAC function

Ac-βAla Ser Arg Ala Leu Thr Glu Leu Gln Arg Gln Arg Leu Glu Pro Phe Arg Gln Arg Xaa Trp Asp Ser Xaa-NH2 (Ac-[βAla]SRALTELQRQRLEPFRQR[S5]WDS[S5]-NH2; staple 20-24; SMILES CC(=O)NCCC(=O)N[C@@H](CO)C(=O)N[C@@H](CCCNC(=N)N)C(=O)N[C@@H](C)C(=O)N[C@@H](CC(C)C)C(=O)N[C@H](C(=O)N[C@@H](CCC(=O)O)C(=O)N[C@@H](CC(C)C)C(=O)N[C@@H](CCC(N)=O)C(=O)N[C@@H](CCCNC(=N)N)C(=O)N[C@@H](CCC(N)=O)C(=O)N[C@@H](CCCNC(=N)N)C(=O)N[C@@H](CC(C)C)C(=O)N[C@@H](CCC(=O)O)C(=O)N1CCC[C@H]1C(=O)N[C@@H](Cc1ccccc1)C(=O)N[C@@H](CCCNC(=N)N)C(=O)N[C@@H](CCC(N)=O)C(=O)N[C@@H](CCCNC(=N)N)C(=O)N[C@@]1(C)CCCC=CCCC[C@@](C)(C(N)=O)NC(=O)[C@H](CO)NC(=O)[C@H](CC(=O)O)NC(=O)[C@H](Cc2c[nH]c3ccccc23)NC1=O)[C@@H](C)O) [RNF31-C]
RBCK1/RNF31 interaction (anti-HA immunoprecipitation, densitometry) (RBCK1/RNF31 interaction; HEK-293 cells, 5 μM or 20 μM, 24 hours, relative to DMSO (FIGS. 5, 6)): little if any effect | Relative NF-κB-luciferase reporter activity (NF-κB; HBL1 ABC DLBCL cells, 5 μM or 20 μM, 2 days, relative to DMSO (FIG. 4)): less of an effect
